Experimental findings from patent US9221838B2, “Inhibitors of AKT activity” (ALMAC DISCOVERY LIMITED, priority 2009, dated 2015) are described below.

For one assay, the target named is T1, AKT3 (Homo sapiens, UniProt Q9Y243).
T1 construct: purchased SignalChem
In words: AKT Kinase Assay (IMAP fluorescent polarisation) vs AKT3. The format is biochemical. The method in brief: (§1)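 Phosphorylation of FAM-Crosstide detected by IMAP binding and fluorescence polarisation (485/528 nm), with IC50 fitted from % inhibition versus vehicle. Compound was incubated 45 min with enzyme, then reacted 1 h at room temperature with ATP and peptide in Tris/MgCl2/DTT buffer. Dose response had fourteen half-log points.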

Assay [1] deals with PC3 and/or LnCaP cell lines. Description: in vitro cell proliferation assay (Cell Titre Glo). The format is cell-based. The note with it: Homo sapiens, read-out: inhibition of proliferation, IC50. How it is done: Testing of the compounds was also performed using in vitro cell proliferation assays:
Cell Titre Glo (Promega) is a highly sensitive homogeneous reagent used to determine the viability of cells. The reagent uses a stable form of luciferase to measure ATP as an output of viability. The luminescent values generated in the assay are directly proportional to the number of viable cells in your assay.
The following materials were used: White, clear bottomed 96 well assay plates (Costar); Cell titre Glo reagents; LnCaP (ECACC) cells grown in RPMI medium (Invitrogen) supplemented with 10 mM HEPES (Invitrogen), 1 mM Sodium pyruvate (Invitrogen), 2 mM L-Glutamine (Invitrogen) and 10% Foetal calf serum (Invitrogen); PC3 (ECACC) cells grown in RPMI medium supplemented with 10% Foetal calf serum (Invitrogen); Trypsin (Invitrogen); PBS (Invitrogen); Biotek Synergy 4 Hybrid Plate reader; 96 well plate shaker (Stuart SSL5); Eppendorf 5414 desk-top centrifuge; Beckman Coulter cell counter Z1 single threshold system.
Prostate cell lines, PC3 and LnCaP, were washed, detached and re-suspended in their respective fresh media. The cells were pelleted by centrifugation (Eppendorf 5414) and spent supernatant discarded. The cells were re-suspended by vortex mixing, counted and seeded into clear bottom white 96 well plates at a density of 5000 cells per well. The cells were incubated (Sanyo) overnight at 37° C. ([…]), and next day treated with increasing concentrations of test compound formulated in fresh medium. The plates were returned to the incubator for 72 hours. […]
The cell viability post compound treatment was determined by the luminescent intensity emitted from the drug treated wells in the plate. In brief, the assay plate was placed in the Biotex Synergy 4 Hybrid plate reader and the luminescence read in each well. The compound treated wells were compared to vehicle treated wells and the % inhibition of cell viability calculated.
The data was analysed using GraphPad Prism, with IC50 values generated using non-linear regression of the data set.

The target in the next assay is T2, AKT2 (Homo sapiens, UniProt P31751).
T2 construct: purchased SignalChem
T2 sequence (P31751 whole entry): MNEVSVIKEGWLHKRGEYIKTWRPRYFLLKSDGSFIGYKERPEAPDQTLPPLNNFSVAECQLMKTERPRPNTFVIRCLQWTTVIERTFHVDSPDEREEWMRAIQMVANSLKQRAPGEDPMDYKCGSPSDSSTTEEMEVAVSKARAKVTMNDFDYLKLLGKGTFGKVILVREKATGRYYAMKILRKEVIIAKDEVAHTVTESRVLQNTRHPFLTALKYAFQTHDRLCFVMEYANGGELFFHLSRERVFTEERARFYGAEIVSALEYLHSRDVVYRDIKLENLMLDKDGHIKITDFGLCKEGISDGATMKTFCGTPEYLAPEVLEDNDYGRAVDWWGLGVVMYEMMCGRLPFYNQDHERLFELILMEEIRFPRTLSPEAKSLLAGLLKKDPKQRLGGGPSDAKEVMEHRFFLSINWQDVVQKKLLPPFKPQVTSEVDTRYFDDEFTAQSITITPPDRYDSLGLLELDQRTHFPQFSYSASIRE
In words: AKT Kinase Assay (IMAP fluorescent polarisation) vs AKT2. Type of assay: biochemical. Put shortly: as §1

In another assay the target is T3, AKT1 (Homo sapiens, UniProt P31749).
T3 construct: purchased SignalChem
T3 sequence (P31749 whole entry): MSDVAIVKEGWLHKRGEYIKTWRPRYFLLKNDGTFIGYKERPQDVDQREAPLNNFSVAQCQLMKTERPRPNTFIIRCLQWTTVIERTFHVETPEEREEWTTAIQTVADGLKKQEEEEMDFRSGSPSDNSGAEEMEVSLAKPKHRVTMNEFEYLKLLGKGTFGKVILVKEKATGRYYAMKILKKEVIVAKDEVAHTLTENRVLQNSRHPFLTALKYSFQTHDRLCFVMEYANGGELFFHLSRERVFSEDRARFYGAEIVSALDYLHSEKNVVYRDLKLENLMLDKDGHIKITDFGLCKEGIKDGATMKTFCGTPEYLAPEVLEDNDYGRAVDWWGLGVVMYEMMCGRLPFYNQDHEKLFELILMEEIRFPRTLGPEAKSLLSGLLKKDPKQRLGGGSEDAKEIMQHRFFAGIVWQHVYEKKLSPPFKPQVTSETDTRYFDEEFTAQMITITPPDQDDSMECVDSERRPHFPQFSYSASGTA
Description: AKT Kinase Assay (IMAP fluorescent polarisation) vs AKT1. The format is biochemical. Put shortly: as §1

Another assay concerns GSK3β phosphorylation. In words: phosphorylation status of members of the AKT/PI3K pathway via ELISA. The note with it: measured at 48 h, read-out: inhibition of GSK3β phosphorylation, IC50. Type of assay: cell-based. In general terms: In an ELISA, binding on a coated surface is turned into a signal by an enzyme label.

Bounds are passed on as bounds.

T1 sequence (Q9Y243 whole entry): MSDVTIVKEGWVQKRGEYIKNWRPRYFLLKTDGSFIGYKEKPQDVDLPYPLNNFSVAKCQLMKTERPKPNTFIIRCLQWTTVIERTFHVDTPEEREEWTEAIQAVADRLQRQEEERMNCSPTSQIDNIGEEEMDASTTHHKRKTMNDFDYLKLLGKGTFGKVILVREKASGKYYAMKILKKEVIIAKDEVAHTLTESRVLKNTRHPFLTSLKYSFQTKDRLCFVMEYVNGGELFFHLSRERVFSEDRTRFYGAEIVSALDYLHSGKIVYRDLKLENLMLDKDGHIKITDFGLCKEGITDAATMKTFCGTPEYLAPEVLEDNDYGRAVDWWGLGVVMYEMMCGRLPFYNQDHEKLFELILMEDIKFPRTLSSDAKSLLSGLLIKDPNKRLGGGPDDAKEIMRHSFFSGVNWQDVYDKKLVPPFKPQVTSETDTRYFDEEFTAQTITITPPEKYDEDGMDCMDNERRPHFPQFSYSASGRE

`NC1(c2ccc(-c3nc4c(cc3-c3ccccc3)-c3n[nH]cc3CC4)cc2)CCC1` [Example 4, 1-(4-(8-phenyl-4,5-dihydro-2H-pyrazolo[3,4-f]quinolin-7-yl)phenyl)cyclobutanamine]: the IC50 on AKT3 is above 10 µM; in assay [1], below 10 µM; on AKT2, 0.1 to 1 µM; on AKT1, at most 0.1 µM; in the assay with GSK3β phosphorylation, below 0.1 µM.
Consider `NC1(c2ccc(-c3nc4c(cc3-c3ccccc3)-c3nncn3CC4)cc2)CCC1` [Example 28, 1-(4-(9-phenyl-5,6-dihydro-[1,2,4]triazolo[3,4-f][1,6]naphthyridin-8-yl)phenyl)cyclobutanamine], for which the IC50 at AKT3 was above 10 µM; in assay [1], below 10 µM; at AKT2, 0.1 to 1 µM; at AKT1, 1 to 10 µM.
For `CN1C(=O)COc2nc(-c3ccc(C4(N)CCC4)cc3)c(-c3ccccc3)cc21` [Example 31, 6-(4-(1-aminocyclobutyl)phenyl)-1-methyl-7-phenyl-1H-pyrido[2,3-b][1,4]oxazin-2(3H)-one], the IC50 at AKT3 was 1 to 10 µM; in assay [1], below 10 µM; at AKT2 it was 0.1 to 1 µM; on AKT1, at most 0.1 µM.
Regarding `N#CCN1C(=O)COc2nc(-c3ccc([C@]4(N)C[C@@H](O)C4)cc3)c(-c3ccccc3)cc21` [Example 147, 2-(6-(4-((1s,3s)-1-amino-3-hydroxycyclobutyl)phenyl)-2-oxo-7-phenyl-2,3-dihydro-1H-pyrido[2,3-b][1,4]oxazin-1-yl)acetonitrile], the results for the IC50 on AKT3, on AKT2 and at AKT1 were above 10 µM, 0.1 to 1 µM and 0.1 to 1 µM, respectively.
For the molecule `N[C@]1(c2ccc(-c3nc4c(cc3-c3ccccc3)N(CC(F)(F)F)C(=O)CO4)cc2)C[C@H](O)C1` [Example 148, 6-(4-((1s,3s)-1-amino-3-hydroxycyclobutyl)phenyl)-7-phenyl-1-(2,2,2-trifluoroethyl)-1H-pyrido[2,3-b][1,4]oxazin-2(3H)-one], the results for the IC50 on AKT3, on AKT2 and on AKT1 were above 10 µM, 0.1 to 1 µM and 0.1 to 1 µM, respectively.
As to `CN1C(=O)COc2nc(-c3ccc(C4(N)CC4)cc3)c(-c3ccccc3)cc21` [Example 149, 6-(4-(1-aminocyclopropyl)phenyl)-1-methyl-7-phenyl-1H-pyrido[2,3-b][1,4]oxazin-2(3H)-one], the figures for the IC50 on AKT3, at AKT2 and at AKT1 were above 10 µM, 1 to 10 µM and 0.1 to 1 µM, respectively.
For `C[C@]1(O)C[C@@](N)(c2ccc(-c3nc4c(cc3-c3ccccc3)N(CC#N)C(=O)CO4)cc2)C1` [Example 150, 2-(6-(4-((1r,3r)-1-amino-3-hydroxy-3-methylcyclobutyl)phenyl)-2-oxo-7-phenyl-2,3-dihydro-1H-pyrido[2,3-b][1,4]oxazin-1-yl)acetonitrile], in that order: 1 to 10 µM, at most 0.1 µM and at most 0.1 µM.
Taken in the same sequence, the figures for `CCN1C(=O)COc2nc(-c3ccc(CN)cc3)c(-c3ccccc3)cc21` [Example 151, 6-(4-(Aminomethyl)phenyl)-1-ethyl-7-phenyl-1H-pyrido[2,3-b][1,4]oxazin-2(3H)-one] were above 10 µM, 0.1 to 1 µM and 1 to 10 µM.
For `C[C@]1(O)C[C@@](N)(c2ccc(-c3nc4c(cc3-c3ccccc3)N(CC(F)(F)F)C(=O)CO4)cc2)C1` [Example 152, 6-(4-((1r,3r)-1-amino-3-hydroxy-3-methylcyclobutyl)phenyl)-7-phenyl-1-(2,2,2-trifluoroethyl)-1H-pyrido[2,3-b][1,4]oxazin-2(3H)-one], in that order: 1 to 10 µM, at most 0.1 µM and 0.1 to 1 µM.
As for `NCc1ccc(-c2nc3c(cc2-c2ccccc2)N(CC2CC2)C(=O)CO3)cc1` [Example 153, 6-(4-(Aminomethyl)phenyl)-1-(cyclopropylmethyl)-7-phenyl-1H-pyrido[2,3-b][1,4]oxazin-2(3H)-one], the IC50 was above 10 µM at AKT3, 1 to 10 µM on AKT2 and 1 to 10 µM at AKT1.
